In patent US20260216180A1, “QUINOLINE DERIVATIVE COMPOUNDS OR PHARMACEUTICALLY ACCEPTABLE SALT THEREOF, PREPARATION METHOD THEREFOR AND USE THEREOF” (JIANGSU CAREPHAR PHARMACEUTICAL CO.,LTD., priority 2023, published 2026):
Read-outs that look alike come from different tables or passages of the source.

Assays:
[1] = test system: TNF-α; assay: Macrophage TNF-α secretion after LPS (ELISA); type: cell-based; details: Bone marrow macrophage, compared to 0 μM, mouse bone marrow macrophages, 200 ng/ml LPS, 6 hours, read-out: Inhibition rate of TNFα at 10 μM concentration
Procedure: (§1) Pharmacological Activity Test: Regulatory Effect of Quinoline Derivatives on Macrophage IL-6 and TNF-α Secretion
(§2) Mouse bone marrow cells were isolated from the femur and tibia bone marrow of […] mice of 6-8 week old raised under SPF conditions and inoculated in 6-well plates at a density of 1.5*10^6 cells/well/2 mL. 50 ng/mL M-CSF was added to each well and the cells were cultured in a CO2 incubator for 3 days. On the third day, the culture medium was replaced with fresh medium containing 100 ng/mL M-CSF and the culture was continued for 3 days. On the 6th day, the supernatant was removed and the cells were washed once with DPBS. After adding 1 mL of DPBS, the macrophages were harvested using a cell scraper, centrifuged at 400 g for 10 min, and the supernatant was discarded. The cells were resuspended in fresh culture medium containing 50 ng/mL M-CSF, inoculated in a 96-well plate at a density of 2*10^4 cells/well/200 μL, and cultured in a CO2 incubator overnight. 0, 3, 5, […] of the test compound were added to each well (wherein well 0 contains 0.1% DMSO) respectively and incubate in a CO2 incubator for 1 hour. Then 200 ng/ml LPS was added and the cell supernatant was collected after 6 hours of co-culture. ELISA kits were used to detect the secretion levels of IL-6 and TNF-α.

[2] = target: T1, CYP2B6 (Homo sapiens, UniProt P20813); assay: CYP enzyme inhibition, human liver microsomes, CYP2B6; type: in vitro ADME; details: probe substrate Bupropion, read-out: IC50 CYP 2B6
T1 construct: Commercially available mixed human liver microsomes were used; from tissue; host or cells: pooled human liver microsomes
T1 sequence (P20813 1-491): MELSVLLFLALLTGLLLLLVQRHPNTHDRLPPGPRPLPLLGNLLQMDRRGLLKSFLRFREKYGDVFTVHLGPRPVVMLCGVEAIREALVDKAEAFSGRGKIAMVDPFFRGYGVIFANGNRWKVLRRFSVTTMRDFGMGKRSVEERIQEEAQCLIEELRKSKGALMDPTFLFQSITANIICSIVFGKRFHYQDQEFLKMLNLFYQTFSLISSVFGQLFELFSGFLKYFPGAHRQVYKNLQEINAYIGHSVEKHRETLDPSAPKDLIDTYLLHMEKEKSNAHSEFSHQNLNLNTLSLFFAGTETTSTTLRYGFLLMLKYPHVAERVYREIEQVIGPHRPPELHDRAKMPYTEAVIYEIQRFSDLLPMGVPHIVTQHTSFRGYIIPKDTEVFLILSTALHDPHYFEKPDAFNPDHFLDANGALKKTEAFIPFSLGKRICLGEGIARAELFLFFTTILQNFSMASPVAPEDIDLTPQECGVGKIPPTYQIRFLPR
Procedure: (§3) Commercially available mixed human liver microsomes were used, with the liver microsome concentrations of diclofenac, dextromethorphan, and midazolam being 0.1 mg/mL; and the liver microsome concentrations of phenacetin, bupropion, amodiaquine, mephenytoin, and testosterone being 0.2 mg/mL. Probe substrate, specific inhibitor and test compound (ABX464, compound 18) were diluted to the corresponding concentration of working solution for use. A mixed solution containing liver microsomes, MgCl2, substrate, […] inhibitor, and the test compound was prepared. After the incubation, 600 μL of ice-cold ACN working solution containing IS was added to terminate the reaction, and the mixture was centrifuged and used for LC-MS/MS detection. [table] At different concentrations of the test compound or positive inhibitor, the percentage of remaining activity is determined by the ratio of the amount of characteristic metabolites of the probe substrate generated to the corresponding amount generated in the absence of the test compound or positive inhibitor. […]

[3] = target: T2, CYP2C19 (Homo sapiens, UniProt P33261); assay: CYP enzyme inhibition, human liver microsomes, CYP2C19; type: in vitro ADME; details: probe substrate S-Mephenytoin, read-out: IC50 CYP 2C19
T2 construct: Commercially available mixed human liver microsomes were used; from tissue; host or cells: pooled human liver microsomes
T2 sequence (P33261 whole entry): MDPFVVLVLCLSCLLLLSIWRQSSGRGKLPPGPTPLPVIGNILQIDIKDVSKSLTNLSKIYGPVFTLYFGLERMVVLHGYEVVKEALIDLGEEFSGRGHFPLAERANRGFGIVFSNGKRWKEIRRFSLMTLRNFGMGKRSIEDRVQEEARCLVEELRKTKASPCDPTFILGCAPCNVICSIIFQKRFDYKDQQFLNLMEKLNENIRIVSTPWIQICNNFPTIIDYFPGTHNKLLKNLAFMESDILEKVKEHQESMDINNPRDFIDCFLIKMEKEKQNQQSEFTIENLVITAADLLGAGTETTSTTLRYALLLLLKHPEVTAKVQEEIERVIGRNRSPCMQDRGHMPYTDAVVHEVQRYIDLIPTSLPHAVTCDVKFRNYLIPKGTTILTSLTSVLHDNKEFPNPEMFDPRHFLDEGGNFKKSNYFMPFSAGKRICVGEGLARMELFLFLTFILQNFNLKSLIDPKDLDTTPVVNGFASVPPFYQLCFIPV
Procedure: as §3

[4] = target: T3, CYP2D6 (Homo sapiens, UniProt P10635); assay: CYP enzyme inhibition, human liver microsomes, CYP2D6; type: in vitro ADME; details: probe substrate Dextromethorphan, read-out: IC50 CYP 2D6
T3 construct: Commercially available mixed human liver microsomes were used; from tissue; host or cells: pooled human liver microsomes
T3 sequence (P10635 whole entry): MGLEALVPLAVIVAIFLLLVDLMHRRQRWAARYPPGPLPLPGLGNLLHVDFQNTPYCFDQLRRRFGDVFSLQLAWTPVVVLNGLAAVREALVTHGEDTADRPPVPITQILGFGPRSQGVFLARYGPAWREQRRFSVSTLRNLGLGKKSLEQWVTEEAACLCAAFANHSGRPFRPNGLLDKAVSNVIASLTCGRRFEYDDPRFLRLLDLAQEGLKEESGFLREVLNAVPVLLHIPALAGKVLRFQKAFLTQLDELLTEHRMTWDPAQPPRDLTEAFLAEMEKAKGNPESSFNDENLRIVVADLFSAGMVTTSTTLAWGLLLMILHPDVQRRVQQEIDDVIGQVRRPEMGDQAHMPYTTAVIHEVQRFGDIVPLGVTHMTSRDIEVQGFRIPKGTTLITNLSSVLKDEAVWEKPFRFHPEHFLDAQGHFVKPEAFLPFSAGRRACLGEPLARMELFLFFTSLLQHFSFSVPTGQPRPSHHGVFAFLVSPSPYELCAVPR
Procedure: as §3

[5] = target: T4, CYP3A4 (Homo sapiens, UniProt P08684); assay: CYP enzyme inhibition, human liver microsomes, CYP3A4; type: in vitro ADME
T4 construct: Commercially available mixed human liver microsomes were used; from tissue; host or cells: pooled human liver microsomes
T4 sequence (P08684 whole entry): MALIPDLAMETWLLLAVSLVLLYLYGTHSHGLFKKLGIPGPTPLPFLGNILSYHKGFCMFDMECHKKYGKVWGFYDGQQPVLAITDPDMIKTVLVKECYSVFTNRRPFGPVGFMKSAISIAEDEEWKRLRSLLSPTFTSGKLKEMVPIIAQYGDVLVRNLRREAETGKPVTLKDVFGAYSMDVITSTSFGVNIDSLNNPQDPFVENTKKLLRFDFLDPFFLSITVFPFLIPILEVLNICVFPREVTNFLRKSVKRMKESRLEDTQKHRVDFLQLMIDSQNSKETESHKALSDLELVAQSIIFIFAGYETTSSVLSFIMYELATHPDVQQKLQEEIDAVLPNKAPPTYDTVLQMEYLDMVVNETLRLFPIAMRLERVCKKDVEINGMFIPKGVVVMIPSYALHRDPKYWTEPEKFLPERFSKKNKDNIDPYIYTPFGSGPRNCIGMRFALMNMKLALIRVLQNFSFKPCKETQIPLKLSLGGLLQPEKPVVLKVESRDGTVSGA
Procedure: (§4) Commercially available mixed human liver microsomes were used, with the liver microsome concentrations of diclofenac, dextromethorphan, and midazolam being 0.1 mg/mL; and the liver microsome concentrations of phenacetin, bupropion, amodiaquine, mephenytoin, and testosterone being 0.2 mg/mL. Probe substrate, specific inhibitor and test compound (ABX464, compound 18) were diluted to the corresponding concentration of working solution for use. A mixed solution containing liver microsomes, MgCl2, substrate, […] inhibitor, and the test compound was prepared. After the incubation, 600 μL of ice-cold ACN working solution containing IS was added to terminate the reaction, and the mixture was centrifuged and used for LC-MS/MS detection. [table] At different concentrations of the test compound or positive inhibitor, the percentage of remaining activity is determined by the ratio of the amount of characteristic metabolites of the probe substrate generated to the corresponding amount generated in the absence of the test compound or positive inhibitor. If a significant decrease in the amount of metabolite production is found at the highest concentration setting point, the half inhibitory concentration (IC50) will be calculated using the log(inhibitor) vs. response—Variable slope formula of GraphPad Prism software: Y=Bottom+(Top−Bottom)/(1+10^((Log IC50−X)*Hillslope)) • X: Log (test compound or positive inhibitor concentration); • Y: Remaining activity percentage; • Top and Bottom: refer to the theoretical maximum and minimum remaining activity percentages respectively; and • Hillslope: slope coefficient or slope. If there is no significant decrease in metabolite production at the highest concentration setting point (percentage of enzyme remaining activity […]), the half inhibitory concentration (IC50) cannot be accurately calculated, and the reported IC50 is greater than the highest concentration tested.

[6] = test system: IL-6; assay: Macrophage IL-6 secretion after LPS (ELISA); type: cell-based; details: Bone marrow macrophage, compared to 0 μM, mouse bone marrow macrophages, 200 ng/ml LPS, 6 hours, read-out: Inhibition rate of IL-6 at 10 μM concentration
Procedure: as §1, §2

[7] = target: T5, CYP1A2 (Homo sapiens, UniProt P05177); assay: CYP enzyme inhibition, human liver microsomes, CYP1A2; type: in vitro ADME; details: probe substrate Phenacetin; for IC50: read-out: IC50 CYP 1A2
T5 construct: Commercially available mixed human liver microsomes were used; from tissue; host or cells: pooled human liver microsomes
T5 sequence (P05177 1-516): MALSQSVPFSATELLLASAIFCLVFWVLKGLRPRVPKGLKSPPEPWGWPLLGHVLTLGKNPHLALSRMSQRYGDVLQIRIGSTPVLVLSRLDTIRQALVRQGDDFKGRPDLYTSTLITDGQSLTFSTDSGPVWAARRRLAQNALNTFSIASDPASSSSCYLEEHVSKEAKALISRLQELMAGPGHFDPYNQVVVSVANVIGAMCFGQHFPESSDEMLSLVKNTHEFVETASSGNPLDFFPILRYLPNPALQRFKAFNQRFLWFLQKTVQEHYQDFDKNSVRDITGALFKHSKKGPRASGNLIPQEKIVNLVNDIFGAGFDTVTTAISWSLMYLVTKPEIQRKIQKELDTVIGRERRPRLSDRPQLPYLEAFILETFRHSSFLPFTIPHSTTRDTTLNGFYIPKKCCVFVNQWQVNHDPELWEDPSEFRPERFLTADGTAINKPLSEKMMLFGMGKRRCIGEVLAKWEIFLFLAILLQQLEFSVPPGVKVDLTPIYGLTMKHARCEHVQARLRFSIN
Procedure: as §4

[8] = probe substrate Midazolam, read-out: IC50 CYP 3A4-Midazolam
[9] = probe substrate Testosterone, read-out: IC50 CYP 3A4-Testosterone

IC50 [2] [µM] | IC50 [3] [µM] | IC50 [4] [µM] | IC50 [5, 8] [µM] | IC50 [5, 9] [µM] | IC50 CYP 1A2 [7] | IC50 [7] [µM] | Compound | inhibition at 10 µM [1] [%] | inhibition at 10 µM [6] [%]
> 100 | 5.69 | 48 | > 100 | > 100 | significantly superior to ABX464 | 21.6 | Fc1cc(Cl)c2nc(Nc3ccc(C4(C(F)(F)F)CC4)cc3)ccc2c1 [Compound 18, 8-chloro-6-fluoro-N-(4-(1-(trifluoromethyl)cyclopropyl)phenyl)quinolin-2-amine] | 94 | 88
86.7 | 4.92 | 17.2 | 73 | > 100 |  | 0.097 | FC(F)(F)Oc1ccc(Nc2ccc3cccc(Cl)c3n2)cc1 [ABX464, reference compound] | 80 | 61
